Laboratory results reported in US20250099553A1, “COMPOSITION AND METHODS FOR MODULATION OF ELOVL2” (YOUHEALTH BIOTECH, LIMITED, priority 2018, published 2025).

Key:
[1] = test system: Elovl2 knock-down human RPE cells (KE); assay: Drug rescue of Elovl2 knockdown (KE) human RPE cells, AMD phenotype (immunofluorescence, qPCR); format: cell-based; settings: 5 mM nicotinamide, 48 h, FIGS. 5I-5J
Experimental: For Elovl2 knockdown, lentivector (pLL3.7-shElovl2) exogenously expressing shRNA (5′-[…]-3′) was made and transfected into 293T cells (ATCC) using Lipofectamin 3000 reagent (Thermo Fisher) to obtain lentivirus. To build the Elovl2-knockdown cell line, human RPE cells (seeded a night ahead in a concentration of 5*10^5 cells/well) in a 6-well plate were infected with the lentivirus containing Elovl2-shRNA for 24h, followed by 24 h of equilibration. Drug treatments were performed at the time of 48 h post-infection. To rescue the Elovl2 knockdown cells, 10 μg/ml curcumin (Sigma, C7727) or 5 mM nicotinamide (Sigma, N0636) or DMSO were added in the cell culture medium and the cells were treated for 48 h.
Murine tissue sample were freshly collected upon perfusion, followed by overnight PFA fixation and sucrose dehydration. Human fibroblast cells, human RPE cells and murine primary cells were fixed with 4% PFA for 1 h. To perform immunofluorescence, the slide was rinsed in PBS for 5 minutes, blocked in blocking buffer (PBS with 1% BSA, 0.1% Tween-20) for 20 minutes at room temperature (RT), and incubated with primary antibody in blocking buffer for 1 hour at RT. After 3 washes with 0.1% Tween-20 in PBS, the slide was incubated with secondary antibody in blocking buffer for 1 hour at RT. The slides were mounted with DAPI-Vectashield solution (Vector laboratories). Images were taken with a confocal microscope (LSM 780). To estimate the mitochondrial conditions, human RPE cells and murine primary cells were incubated with either MitoSOX (5 uM) according to manufacturer's instructions.

human fibroblast cells = test system: human fibroblast cells
Experimental: The human RPE cells were primarily derived from healthy donors. The human fibroblast cells are purchased from ATCC (WI-38, ATCC® CCL-75) human fibroblasts were maintained in Dulbecco's Modified Eagle Medium (DMEM) supplemented with 10% fetal bovine serum and 50 U/ml penicillin-streptomycin. Human RPE cells were cultured with DMEM/F-12 (1:1) supplemented with 10% fetal bovine serum and 50 U/ml penicillin-streptomycin.
RNA was extracted by RNeasy Mini Kit (QIAGEN, 74104) and the RNase-Free DNase Set (QIAGEN, 79254) was used to ensure no DNA contamination. Reverse transcription was performed by High Capacity cDNA Reverse Transcription Kit (ABI, 4368814). SYBR-qPCR was performed by Power SYBR® Green PCR Master Mix (ABI, 4367659). All primers were designed using PrimerPremier5 and synthesized from Integrated DNA Technologies.

Row | Structure (SMILES) | AMD markers [1] | expression of cellular senescence genes [1] | mitochondrial dysfunction [1] | methylation on biological aging marker Elovl2 (human fibroblast cells; H2O2 treated human fibroblast cells, MeDip-qPCR) | senescent markers (human fibroblast cells; H2O2 treated human fibroblast cells, FIGS. 1D-1E, 6E-6F) | expression of Elovl2 (human fibroblast cells; after H2O2 treatment, groups with DNMT1, DNMT3A and DNMT3B knockdown but not CHD4 knockdown, FIG. 6H)
1 | NC(=O)c1cccnc1 [nicotinamide] | reduction of AMD markers | reversed the abnormal expression of cellular senescence genes | reduced mitochondrial dysfunction |  |  | 
2 | OO [H2O2, hydrogen peroxide] |  |  |  | Increased methylation | increase of senescent markers | decreased
